Experiment [1] relates to VPA-exposed rats. The experiment in a line: Sociability and preference for social novelty, 3-chamber apparatus, prenatal VPA model. In kind it is in vivo, rat. On the procedure: (§1) Pregnant Sprague-Dawley rats (Charles River, Calco, Italy), received a single intraperitoneal injection of 500 mg/kg sodium valproate on the 12.5 day after conception, and control females were injected with physiological saline at the same time. Sodium valproate (Sigma Aldrich, Milan, IT) was dissolved in saline at a concentration of 250 mg/ml.
(§2) CBDV was dissolved in ethanol, cremophor and saline (1:1:18). Symptomatic treatment with CBDV at doses of 0.2, 2, 20, and 100 mg/kg/day i.p. was performed starting from PND 34 (early adolescence) till 56 (early adulthood), both in male and female offspring of dams injected with VPA 500 mg/kg (or vehicle) on day 12.5 after conception. At PND 56, a series of behavioural tests was performed in order to assess the effect of chronic CBDV on sociability, social novelty, short-term memory, locomotion and stereotyped/repetitive behaviours.
Sociability and preference for social novelty: These behaviours were investigated in a 3-chamber apparatus which allows for the measurement of social approach and social preference. In brief, animals were placed into a novel arena (80 cm×31.5 cm) composed of three communicating chambers separated by Perspex walls with central openings allowing access to all chambers for 5 min.
Following this acclimatisation period, animals were briefly confined to the central chamber while an unfamiliar rat confined in a small wire cage was placed in one of the outer chambers. An identical empty wire cage was placed in the other chamber. The unfamiliar rat was randomly assigned to either the right or left chamber of the arena. The test animal was then allowed to explore the arena/chambers for a further 5 min. Time spent engaging in investigatory behaviour with the rat was evaluated with the aid of Anymaze program (Ugo Basile, Italy) in order to examine social approach.
To investigate the preference for social novelty, a novel unfamiliar rat was then placed in the empty cage and the test animal was then allowed to explore the arena/chambers for a further 5 min. Time spent engaging in investigatory behaviour with the novel unfamiliar rat was evaluated with the aid of Anymaze program (Ugo Basile, Italy) in order to examine preference for social novelty.

For experiment [2], the system named is VPA-exposed rats. Put plainly: Locomotor activity and repetitive behaviours (self-grooming), prenatal VPA model. Type of experiment: in vivo, rat. Conditions: VPA offspring. On the procedure:
as §1, §2
Locomotor activity and repetitive behaviours: Locomotor activity was recorded in an activity cage for 20 minutes with the aid of Anymaze program (Ugo Basile, Italy). In this period, repetitive behaviours (self-grooming and digging) were measured by an observer blind to the treatment group.

The subject of experiment [3] is GFAP, CD11b, TNFα expression in the hippocampus. Put plainly: Neuroinflammation studies, hippocampus protein expression by Western blotting, prenatal VPA model. In kind it is in vivo, rat. On the procedure: At the end of the study, on PND 59, male rats treated with CBDV 20 mg/kg i.p. were sacrificed and the hippocampus was collected 24 hours after the last CBDV injection and stored at −80° C. for evaluation of changes in protein expression of components of the endocannabinoid system (CB1 and CB2 receptors, the endocannabinoid degrading enzymes, FAAH and MAGL and the synthetic enzymes, DAGLα and NAPE-PLD); neuroinflammatory markers (GFAP (astrocytic marker), Iba1 (microglial marker), CD11b (activated microglial marker), TNF-α (proinflammatory cytokine) and iNOS (inflammatory mediator)); synaptic markers (Synaptophysin (synaptic vesicle protein), PSD-95 (post synaptic density protein) and the neurotrophins, BDNF and IGF by Western blotting.
A general note: In western blotting, separated proteins are transferred to a membrane and probed.

In experiment [4] the test system is MeCP2 KO mice. The experiment in a line: Survival in Rett syndrome model. Type of experiment: in vivo, mouse. How it is done: CBDV was administered daily at the dose of 2, 20 and 200 mg/kg i.p. starting from PND 28 and the following signs were scored every other day: hindlimb clasping (indication of motor imbalance), tremor, gait (measure of coordination), breathing, mobility and general condition.
Starting from PND 28, mice received a daily intraperitoneal injection of CBDV (or vehicle) at the dose of 2, 20 and 200 mg/kg. Animals were then scored every other day to evaluate the effect of CBDV treatment on motor symptoms (hindlimb clasping, gait, mobility) as well as neurological signs and general conditions (breathing abnormalities, tremors and general condition) present in MeCP2 knockout (KO) mice.

Experiment [5] concerns Ube3am-/p+ (AS) mice. The experiment in a line: Clasping test in Angelman syndrome model. Conditions: CBDV 20 mg/kg i.p. chronic treatment (30 days); AS mice at 10 weeks of age vs AS vehicle. In kind it is in vivo, mouse. On the procedure:
(§3) Heterozygous mice with maternal deficiency of Ube3A (Ube3am−/p+) and wild type (Ube3am+/p+) were purchased from The Jackson Laboratory (Jackson code: B6.129S7-Ube3a tm1Alb/J) and maintained in a C57BL/6 background.
Drugs were dissolved in 1:1:18 ethanol:cremophor:0.9% saline, for intraperitoneal (i.p.) administration. […] CBDV was administered at 20 mg/kg.
Clasping: The clasping test assesses ataxia in mice. Mice were suspended by the base of the tail and their behaviours were recorded for 30 seconds. The time for which the mice clasped their hind limbs was recorded. The time was then scored as follows: 4, 15-30 s, 3, 10-15 s, 2, 5-10 s, 1, 0-5 s and 0,0 s

For experiment [6], the system named is Ube3am-/p+ (AS) mice. The experiment in a line: Rotarod test in Angelman syndrome model. Type of experiment: in vivo, mouse. Conditions: CBDV 20 mg/kg i.p. chronic treatment (30 days); AS mice vs AS vehicle. On the procedure: as §3
Drugs were dissolved in 1:1:18 ethanol:cremophor:0.9% saline, for intraperitoneal (i.p.) administration. Drug treatment was performed daily for 35 days. CBDV was administered at 20 mg/kg.
Rotarod: The rotarod test assesses balance and motor coordination of mice. Mice have been measured for the time (in seconds) of equilibrium before falling on a rotary cylinder by a magnet that, activated from the fall of the mouse on the plate, allows to record the time of permanence on the cylinder. […] The animals were analysed by 2 separate tests at 1-h interval in the same day.
For orientation: In the rotarod test animals must keep their balance on a rotating rod.

Experiment [7] has as its system Ube3am-/p+ (AS) mice. Put plainly: Audiogenic seizure susceptibility in Angelman syndrome model. In kind it is in vivo, mouse. How it is done: as §3
For the audiogenic seizure tests CBDV was administered at 20, 200 and 400 mg/kg.
Seizure susceptibility: Audiogenic seizures were induced by vigorously scraping scissors across the metal grating of the cage lid which produces a 100 DB high frequency loud noise. This was done for 20 seconds. This test consists of 3 phases. In phase 1 all mice were tested for epilepsy. In phase 2 all mice were injected daily with either vehicle or a drug for 7 or 10 days. In phase 3 mice were tested for epilepsy (one hour after last injection).

For the compound `C=C(C)[C@@H]1CCC(C)=C[C@H]1c1c(O)cc(CCC)cc1O` [CBDV, Cannabidivarin], the “restoration of social novelty preference (FIG. 1A)” value in experiment [1] (CBDV 20 mg/kg/day i.p. PND 34-56, VPA offspring, p<0.001 in males, p<0.01 in females) is recorded as “statistically significant effect”. Further, the “reduction of preference index compared to controls” value in experiment [1] (VPA-CBDV animals, VPA alone about 48%) is reported as “about 13%”. Also, in experiment [1] (all doses (0.2, 2, 20, 100 mg/kg/day i.p.), VPA rats), the “impairment in sociability (FIG. 1B)” value is “significantly reduced the impairment in sociability”. Besides, the “deficit in social preference (FIG. 1C), time exploring novel vs familiar rat” value in experiment [1] (doses of 20 mg/kg and 100 mg/kg, VPA rats) is “reversed the deficit in social preference”. Further, the “repetitive behaviours (compulsive self-grooming) (FIG. 2A)” value in experiment [2] (20 mg/kg in males) was “significantly normalize”; in experiment [2] (2 and 100 mg/kg in females), “significantly normalize”. The “locomotor activity (FIG. 2B)” value in experiment [2] (2, 20 and 100 mg/kg in males) is on record as “normalize”. In experiment [3] (chronic CBDV 20 mg/kg i.p., male VPA-exposed rats), the “expression of inflammatory markers that were increased (GFAP, CD11b, TNFα) in hippocampus (FIG. 2D)” value is given as “completely normalised”. For the same compound, the “expression of inflammatory markers in hippocampus (FIG. 2D)” value in experiment [3] (chronic CBDV, control rats) is recorded as “no effect”. In experiment [4] (CBDV 200 mg/kg, PND 67, vehicle 25%), this compound returned a survival rate of 75%. Moreover, the “survival measured at PND 67 (FIG. 5)” value in experiment [4] (all three doses (2, 20, 200 mg/kg)) is reported as “increase survival”. Also, the “clasping duration (FIG. 11)” value in experiment [5] is “significantly reduced clasping duration”. Further, the “latency to fall, rotarod (FIG. 12)” value in experiment [6] is given as “reduced latency to fall”. Further, the “seizure susceptibility, number of mice with seizures vs baseline (FIG. 15)” value in experiment [7] (20 mg/kg or 200 mg/kg, 7 or 10 days treatment) is reported as “no effect”. Also, in experiment [7] (400 mg/kg), the “number of mice with seizures (FIG. 15)” value is recorded as “statistically significant decrease”.

The values above are taken from patent publication US11752111B2, “Use of cannabidivarin in the treatment of autism spectrum disorder, associated disorders and schizophrenia” (GW Research Limited, priority 2016, dated 2023).
